Experimental findings from EP1619195A2, “Compounds isolated from gamboge resin having activity in inhibiting the growth of tumor/cancer cells and pharmaceutical compositions comprising the same” (priority 2004, dated 2006) are described below.

Values after ≈ are worked out from the molar mass of the structure shown. Values joined by “and” are separate entries in the source; they are usually repeats but may differ in a detail not shown here. Equal values may be shown once. Marks after values point to notes of the source that are not given here.

One data set relates to MCF-7 (breast cancer). Briefly: cells. Particulars: for LC50: 50% cell destroying lethal concentration. The text has this:
(§1) The cancer cell growth inhibition test was primarily used to detect the effect of a candidate drug on cancer cell proliferation. The working principle involved therein is the abilityof viable cells to shift alamarBlue (Biosource, USA) from its originally non-fluorescent oxidized state to a reduced form (fluorescent, red) having fluorescence via metabolic reaction. According to the fluorescent data result generated by the alamarBlue reagent thus obtained, the proliferation of the viable cells and cell activity can be quantified for detection.
(§2) In this experiment, the assay concentrations of the candidate drug were set to be 0.01, 0.1, 1, 10, and 100 µg/ml, and the following cell lines were used: 6 human cancer cells MCF-7 (breast cancer), HT-29 (colon cancer), HL-60 (leukemia), HepG2 (liver cancer), A549 (lung cancer), and U937 (lymphoma cancer), and a normal human umbilicalvenalepithelialcell (HUVEC).

A further data set relates to HT-29 (colon cancer). The experiment in a line: cells. Conditions: for LC50: 50% cell destroying lethal concentration.
From the text: as §1, §2

The test system of another data set is HL-60 (leukemia). Briefly: cells. Particulars: for LC50: 50% cell destroying lethal concentration.
From the text: as §1, §2

The next data set relates to A549 (lung cancer). The experiment in a line: cells. Particulars: for LC50: 50% cell destroying lethal concentration.
From the text: as §1, §2

For another data set, the system named is U937 (lymphoma cancer). Briefly: cells. Conditions: for LC50: 50% cell destroying lethal concentration.
From the text: as §1, §2

A further data set relates to HepG2 (liver cancer). The experiment in a line: cells. Conditions: for LC50: 50% cell destroying lethal concentration.
From the text: as §1, §2

Another data set concerns HUVEC. The experiment in a line: in vitro. Conditions: for LC50: 50% cell destroying lethal concentration.
From the text: as §1, §2

A short description of the next data set: in vitro. Conditions: human.
From the text: as §1, §2

In data set [1] the test system is Human breast cancer cells MCF-7 (ATCC HTB-22). The experiment in a line: In vivo tumor growth inhibition, MCF-7 xenograft in SCID mice. Particulars: 2 mg/kg x 5, intraperitoneal, 4-day interval. As for the experimental part:
Mixture formulation TSB-9 was further subjected to an animal test, in which female mice (6-8 weeks old, weighing 20-22 grams) originally from C.B-17/Icr background and having Severe Combined Immune Deficiency (SCID) were used.
Human breast cancer cells MCF-7 (ATCC HTB-22) (1x10^7 cells/0.2 ml) were implanted subcutaneously into the dorsal side of the mice, and 50 µg/mouse of estradiol benzoate (Sigma, USA) was injected subcutaneously into the mice weekly as supplement for a total of 4 weeks. When the tumor growth reached ≥5 mm in diameter (that very day was denoted as day 1), tumor-bearing […] mice were randomly divided into 4 groups (6 mice in each group).
Mixture formulation TSB-9 was dissolved in 10%DMSO, and was administered orally to the mice every day at two dosages 40 mg/kg and 80 mg/kg, respectively, for a total of 21 consecutive days. […] This treatment group served as a positive control.
Measurements were taken once every 4 days during the experiment periods, and were recorded.

[2] abbreviates: Homo sapiens, MCF7, MCF-7, 50% cell growth inhibition concentration.
Setting [3] is: Homo sapiens, HT-29, HT-29, 50% cell growth inhibition concentration.
Where [4] appears, read: Homo sapiens, HL-60, HL-60, 50% cell growth inhibition concentration.
Where [5] appears, read: Homo sapiens, A549, A549, 50% cell growth inhibition concentration.
[6] abbreviates: Homo sapiens, HepG2, HepG2, 50% cell growth inhibition concentration.
Setting [7] is: Homo sapiens, HUVEC, HUVEC (normal human cell), 50% cell growth inhibition concentration.

For orientation: IC50 means the concentration needed to halve the response being measured. As usually defined, the LC50 is the concentration that kills 50% of the test population. For the compound `CC(C)=CCc1c2c(c(O)c3c1OC14C(=CC5CC1C(C)(C)OC4(CC=C(C)C)C5=O)C3=O)C=CC(C)(C)O2` (stereo not drawn) [TSB-8, desoxymorellin], the IC50 in the data set with MCF-7 (breast cancer) (setting [2]) worked out at 5.3 mg/L; in the data set with HT-29 (colon cancer) (setting [3]), 6.7 mg/L; in the data set on HL-60 (leukemia) (setting [4]), 6.5 mg/L; with A549 (lung cancer) (setting [5]), 4.8 mg/L; with U937 (lymphoma cancer) (Homo sapiens, U-937), 6.2 mg/L; in the data set with HepG2 (liver cancer) (setting [6]), 3.9 mg/L. For the same compound, in the data set with HUVEC (setting [7]), the IC50 was 2.8 mg/L. Further, the LC50 was 83 mg/L (≈ 156 µM) in the data set on MCF-7 (breast cancer) (MCF-7); 69 mg/L (≈ 130 µM) in the data set with HT-29 (colon cancer) (HT-29); above 100 mg/L in the data set with HL-60 (leukemia) (HL-60); 56 mg/L (≈ 106 µM) in the data set with A549 (lung cancer) (A549); above 100 mg/L in the data set on U937 (lymphoma cancer) (U937); 31 mg/L (≈ 58.4 µM) in the data set on HepG2 (liver cancer) (HepG2). In the data set with HUVEC (HUVEC (normal human cell)), this compound came in with an LC50 of 40 mg/L (≈ 75.4 µM).
With `CC(C)=CCc1c(O)cc(O)c2c(=O)c3cc4c(c(O)c3oc12)OC(C)(C)C=C4` [TSB-4, 7,9,12-trihydroxy-2,2-dimethyl-10-(3-methyl-but-2-enyl)-2H-pyrano[3,2-b]xanthen-6-one], the IC50 with MCF-7 (breast cancer) (setting [2]) came to 10 mg/L; in the data set on HT-29 (colon cancer) (setting [3]), 8.4 mg/L; with HL-60 (leukemia) (setting [4]), 7.7 mg/L; in the data set with A549 (lung cancer) (setting [5]), 1.8 mg/L; with U937 (lymphoma cancer) (Homo sapiens, U-937, U937, 50% cell growth inhibition concentration), 6.9 mg/L; in the data set on HepG2 (liver cancer) (setting [6]) it was 8.9 mg/L. Also, it took 11 mg/L to reach half-maximal inhibition in the data set on HUVEC (setting [7]) (IC50). In addition, the CC50 in the data set “in vitro” was 21 mg/L (≈ 53.2 µM).
Regarding `CO[C@@]12[C@H](COC(N)=O)C3=C(C(=O)C(C)=C(N)C3=O)N1C[C@@H]1N[C@@H]12` [mitomycin, reference compound], the IC50 with MCF-7 (breast cancer) (MCF-7, positive control) is 0.069 µM and 0.034 µM; in the data set on HT-29 (colon cancer) (HT-29, positive control), 0.12 µM and 0.089 µM; with HT-29 (colon cancer) (Homo sapiens, HT-29, HT-29, positive control) it was 0.09 µM; in the data set with HL-60 (leukemia) (HL-60, positive control) it was 0.047 µM and 0.027 µM; in the data set on HL-60 (leukemia) (Homo sapiens, HL-60, HL-60, positive control), 0.039 µM; in the data set with A549 (lung cancer) (A549, positive control), 0.062 µM and 0.061 µM. For the same compound, the IC50 with A549 (lung cancer) (Homo sapiens, A549, A549, positive control) is 0.068 µM; with U937 (lymphoma cancer) (Homo sapiens, U-937, U937, positive control) it was 0.069 µM; in the data set on U937 (lymphoma cancer) (U937, positive control), 0.035 µM and 0.056 µM; in the data set on HepG2 (liver cancer) (HepG2, positive control) it was 0.026 µM; in the data set with HepG2 (liver cancer) (HepG2, positive control, listed as Mitomycin), 0.062 µM and 0.036 µM; in the data set on HUVEC (HUVEC (normal human cell), positive control) it was 0.24 µM. The compound also yielded an IC50 in the data set on HUVEC (HUVEC (normal human cell), positive control, listed as Mitomycin) of 0.17 µM. Moreover, the “Tumor growth (%T/C)” value is on record as 98% in data set [1] (Day 1); 31* % in data set [1] (Day 5); 1* % in data set [1] (Day 9); -6* % in data set [1] (Day 13); -23* % in data set [1] (Day 17); -36* % in data set [1] (Day 21). Moreover, the “Tumor growth (%T/C)” value in data set [1] (Day 25) is -56* %; in data set [1] (Day 29) it was -70* %.
For the compound `CC(C)=CCc1c2c(c(O)c3c1OC14C(=CC5CC1C(C)(C)OC4(CC=C(C)CO)C5=O)C3=O)C=CC(C)(C)O2` (stereo not drawn) [TSB-6, isomorellinol], the IC50 is 0.9 mg/L with MCF-7 (breast cancer) (Homo sapiens, MCF7); 5.2 mg/L in the data set on HT-29 (colon cancer) (Homo sapiens, HT-29); 1.4 mg/L in the data set with HL-60 (leukemia) (Homo sapiens, HL-60); 2 mg/L in the data set with A549 (lung cancer) (Homo sapiens, A549); 1.3 mg/L in the data set with U937 (lymphoma cancer) (Homo sapiens, U-937); 1.2 mg/L in the data set with HepG2 (liver cancer) (Homo sapiens, HepG2). Further, in the data set with HUVEC (Homo sapiens, HUVEC), the IC50 came out at 1.5 mg/L. For the same compound, the LC50 in the data set on MCF-7 (breast cancer) (MCF-7) amounted to 5.8 mg/L (≈ 10.6 µM); in the data set on HT-29 (colon cancer) (HT-29), 8.5 mg/L (≈ 15.5 µM); in the data set on HL-60 (leukemia) (HL-60), 6.2 mg/L (≈ 11.3 µM); with A549 (lung cancer) (A549), 9.6 mg/L (≈ 17.6 µM); in the data set on U937 (lymphoma cancer) (U937) it was 3.8 mg/L (≈ 6.95 µM); with HepG2 (liver cancer) (HepG2) it was 3.0 mg/L (≈ 5.49 µM). The same compound displayed an LC50 in the data set with HUVEC (HUVEC (normal human cell)) of 9.3 mg/L (≈ 17 µM).
